Literature values, collected in patent publication EP1085079A1, “Treatment compositions for fabrics” (THE PROCTER & GAMBLE COMPANY, priority 1999, dated 2001).

| Structure (SMILES) | stability over a wide pH range |
| --- | --- |
| Cn1sc2c(c1=O)CCC2 [Promexal, 2-methyl-4,5-trimethylene-4-isothiazolin-3-one] | 4-12 |
| O=c1[nH]sc2ccccc12 [Proxel, 1,2-benzisothiazolin-3-one] | 4-12 |
